According to patent US8822542B2, “Isoketal scavengers and mitigation of disorders involving oxidative injury” (Vanderbilt University, priority 2005, dated 2014):
pIC50: −log10 of the molar value.

Tests used:
[1] = system: F2-IsoPs in renal vein plasma; conditions: 1 mM in the drinking water, chronic oral; cited from earlier work
[2] = system: plasma concentrations of F2-IsoPs; assay: Porcine model of global ischemia/reperfusion (cardiac arrest and CPR), plasma F2-IsoPs; type: in vivo; conditions: 30 mg/kg intravenous, single dose during CPR
Method: The present inventors chose antioxidants to test in the models of AD that we have found effective in suppressing oxidative stress in other animal models of oxidative injury. One model of oxidative injury is the porcine model of global ischemia/reperfusion resulting from induction of cardiac arrest for 3 mins followed by cardiopulmonary resuscitation (CPR). Shown in FIG. 25 are results using this model. As shown, cardiac arrest followed by CPR induced a dramatic increase in plasma concentrations of F2-IsoPs. […] This study involved the administration of a single dose of Tempol. Shown in FIG. 26 is data taken from a report from Ortiz, et. al. in which they assessed the ability of chronic oral administration of TEMPOL (1 mM in the drinking water) to suppress the increase in F2-IsoPs induced by chronic IV infusion of angiotensin II. […] Tempol is one of the antioxidants of the present invention.

[3] = target: human cardiac Na channel (hH1, or SCN5A) (Homo sapiens, UniProt Q14524); assay: Whole-cell Na current recording, wild-type hH1 expressed in HEK-293 cells; conditions: for P500/P1 (use-dependence): 5 Hz, 500 pulses; for V1/2 voltage-dependence of inactivation (availability): HEK-293, t-BHP 1 mM, Iso-K 10 μM
[4] = system: patients convalescing from myocardial infarction; conditions: in vivo; cited from earlier work
[5] = target: mutant Na+ channel (F1760A) (Homo sapiens, UniProt Q14524, F1760A); assay: Whole-cell Na current recording, F1760A mutant Na+ channel; type: cell-based; conditions: flecainide 10 μM, IsoK 10 μM
Method: A. Use-dependent flecainide block was examined using the protocol shown. A train of 500 depolarizing pulses with 10 msec duration at −20 mV were applied at a frequency of 5 Hz. Currents are plotted from every twentieth pulse. Upper panel represents the current in the presence of flecainide (1 μM). Lower panel represents INa in the presence of flecainide and IsoK (10 μM). B. Depolarization-dependent effects are summarized as a function of the pulse number. All current amplitudes are normalized to that of the first depolarization and every tenth pulse is plotted. […] For these experiments flecainide concentration was increased to 10 μM.
Where indicated, cells were co-transfected with an equimolar ratio of Na channel human β1 subunit. cDNAs were transiently transfected into HEK-293 cells using lipofectamine (GIBCO-BRL, Gaithersburg, Md.), and were cultured in MEM medium supplemented with 10% fetal bovine serum and 1% pen-strep in a 5% CO2 incubator at 37° C. for 1 to 4 days.
The effects of IsoK were tested using the same protocol as FIG. 39A. In this experiment, the concentration of flecainide was increased to 10 μM to exaggerate use-dependence.

[6] = target: native Na+ channels in HL-1 cells (Mus musculus, UniProt Q9JJV9); conditions: for Na channel availability: HL-1, preincubation; for V1/2 availability of native Na+ channels: HL-1, t-BHP 2 mM, Iso-K 10 μM
HEK-293 cells = assay: Lipid peroxidation products in HEK 293 cells treated with t-BHP; type: cell-based; conditions: exposure of HEK cells
Method: Synthesis and analysis of reactive products of lipid peroxidation: E2-isoketal was synthesized as previously described. The present inventors used mass spectrometry to analyze F2-isoprostanes formed following treatment of HEK 293 cells with t-BHP. For this assay, HEK-293 cells (1×10^6) were treated for 30 minutes at room temperature with buffer containing 100 μM t-BHP, or 100 μM t-BHP and 200 μM FeCl2. Total (free and esterified) F2-isoprostanes (F2-IsoPs) esterified in cellular lipids were then quantified by a highly accurate GC/NICI/MS assay as described previously.

[7] = system: proteasome chymotrypsin-like activity; assay: Inhibition of chymotrypsin-like activity in RAW cell lysates; type: biochemical
From the text: When the mechanism of inhibition id analyzed, both competitive and non-competitive mechanism are found. Therefore, in addition to adducted proteins inhibiting the proteasome, IsoKs may cause inhibition by directly adducting to the proteasome itself, or to proteins that regulate proteasome activity.

recombinant human tau = assay: PHF-tau formation, dot blot with Alz50; type: biochemical; conditions: equimolar IsoK and tau, within 2 hrs
Method: Synthetic IsoK to equimolar amounts of recombinant human tau was added and the amount of PHF-tau formation by dot blot analysis was determined with the monoclonal antibody Alz50 (a gift from Dr. Peter Davis). Alz50 recognizes an epitope unique to PHF-tau. […] (FIG. 33).

P19 neuroglial cultures = assay: Cell death in P19 neuroglial cultures; type: cell-based; conditions: read-out: LC50 cell death
From the text: (§1) Because inhibitors of proteasome function induce neuronal death, the present inventors examined the toxicity of IsoKs.

ovalbumin (OVA) = ovalbumin (OVA) (Gallus gallus, UniProt P01012); assay: Protein cross-linking after incubation with ovalbumin; type: biochemical; conditions: 10 molar equivalents, about 4 hours
From the text: The above findings explained why repeated attempts in the past to detect free IsoKs during oxidation of biological systems in vitro, e.g. microsomes, and in animal models of oxidant injury in vivo were unsuccessful because they are rapidly sequestered as protein adducts. Therefore, the present inventors undertook to determine the identity of IsoK lysyl adducts as a basis for development of methodology to detect IsoK and NeuroK adducts in biological tissues in their adducted form. […] Reversible Schiff base adducts were also identified. Schiff base adducts are formed rapidly and then decline over time, whereas lactam adducts accumulate slowly over time. Lysyl protein adducts of IsoKs and NeuroKs are analyzed by LC/MS/MS following enzymatic digestion of proteins to individual amino acids. Enzymatic digestion of proteins is necessary because the adducts degrade during acid hydrolysis. However, this analysis is further complicated by the proclivity of IsoKs and NKs to induce protein crosslinking, which is resistant to hydrolysis. […] This is a dramatic example of the differential effects of IsoKs/NKs and HNE on protein adduction and cross-linking.

proteasome = assay: Proteasome inhibition in P19 neuroglial cultures; type: cell-based
From the text: as §1

bovine serum albumin = bovine serum albumin (Bos taurus, UniProt P02769); assay: Disappearance of free IsoK and HNE during incubation with bovine serum albumin (rate of adduction); type: biochemical
Method: Oxidation of AA in vitro produces both F2-IsoPs and IsoKs in nearly equivalent amounts. However, comparison of the formation of F2-IsoPs and IsoKs in vivo is more complex, because IsoKs rapidly adduct to lysyl residues on proteins. […] In striking contrast, approximately 50% of the HNE still remained in free form after 80 minutes.

aged SAMP mice = conditions: mouse, in vivo; cited from earlier work
[8] = system: F2-IsoPs esterified in the kidney; assay: Galactosamine treated rats (hepatorenal syndrome model), F2-IsoPs esterified in the kidney; type: in vivo, rat; conditions: 1 g/L drinking water
From the text: Another antioxidant of the present invention is lipoic acid. […] Dihydrolipoic acid is a dithiol. As mentioned previously, thiols reduce the endoperoxide intermediates in the IsoP pathway in vivo to F2-IsoPs. Reducing the endoperoxides concomitantly therefore reduces the formation of endoperoxide rearrangement products, one of which is the IsoKs (FIG. 28). Therefore, mechanistically lipoic acid is an antioxidant to test in animal models of AD. It is also an antioxidant to test because it is available over the counter for human use.

[9] = alone, flecainide 1 μM, IsoK 10 μM

Sequence of native Na+ channels in HL-1 cells (Q9JJV9 whole entry): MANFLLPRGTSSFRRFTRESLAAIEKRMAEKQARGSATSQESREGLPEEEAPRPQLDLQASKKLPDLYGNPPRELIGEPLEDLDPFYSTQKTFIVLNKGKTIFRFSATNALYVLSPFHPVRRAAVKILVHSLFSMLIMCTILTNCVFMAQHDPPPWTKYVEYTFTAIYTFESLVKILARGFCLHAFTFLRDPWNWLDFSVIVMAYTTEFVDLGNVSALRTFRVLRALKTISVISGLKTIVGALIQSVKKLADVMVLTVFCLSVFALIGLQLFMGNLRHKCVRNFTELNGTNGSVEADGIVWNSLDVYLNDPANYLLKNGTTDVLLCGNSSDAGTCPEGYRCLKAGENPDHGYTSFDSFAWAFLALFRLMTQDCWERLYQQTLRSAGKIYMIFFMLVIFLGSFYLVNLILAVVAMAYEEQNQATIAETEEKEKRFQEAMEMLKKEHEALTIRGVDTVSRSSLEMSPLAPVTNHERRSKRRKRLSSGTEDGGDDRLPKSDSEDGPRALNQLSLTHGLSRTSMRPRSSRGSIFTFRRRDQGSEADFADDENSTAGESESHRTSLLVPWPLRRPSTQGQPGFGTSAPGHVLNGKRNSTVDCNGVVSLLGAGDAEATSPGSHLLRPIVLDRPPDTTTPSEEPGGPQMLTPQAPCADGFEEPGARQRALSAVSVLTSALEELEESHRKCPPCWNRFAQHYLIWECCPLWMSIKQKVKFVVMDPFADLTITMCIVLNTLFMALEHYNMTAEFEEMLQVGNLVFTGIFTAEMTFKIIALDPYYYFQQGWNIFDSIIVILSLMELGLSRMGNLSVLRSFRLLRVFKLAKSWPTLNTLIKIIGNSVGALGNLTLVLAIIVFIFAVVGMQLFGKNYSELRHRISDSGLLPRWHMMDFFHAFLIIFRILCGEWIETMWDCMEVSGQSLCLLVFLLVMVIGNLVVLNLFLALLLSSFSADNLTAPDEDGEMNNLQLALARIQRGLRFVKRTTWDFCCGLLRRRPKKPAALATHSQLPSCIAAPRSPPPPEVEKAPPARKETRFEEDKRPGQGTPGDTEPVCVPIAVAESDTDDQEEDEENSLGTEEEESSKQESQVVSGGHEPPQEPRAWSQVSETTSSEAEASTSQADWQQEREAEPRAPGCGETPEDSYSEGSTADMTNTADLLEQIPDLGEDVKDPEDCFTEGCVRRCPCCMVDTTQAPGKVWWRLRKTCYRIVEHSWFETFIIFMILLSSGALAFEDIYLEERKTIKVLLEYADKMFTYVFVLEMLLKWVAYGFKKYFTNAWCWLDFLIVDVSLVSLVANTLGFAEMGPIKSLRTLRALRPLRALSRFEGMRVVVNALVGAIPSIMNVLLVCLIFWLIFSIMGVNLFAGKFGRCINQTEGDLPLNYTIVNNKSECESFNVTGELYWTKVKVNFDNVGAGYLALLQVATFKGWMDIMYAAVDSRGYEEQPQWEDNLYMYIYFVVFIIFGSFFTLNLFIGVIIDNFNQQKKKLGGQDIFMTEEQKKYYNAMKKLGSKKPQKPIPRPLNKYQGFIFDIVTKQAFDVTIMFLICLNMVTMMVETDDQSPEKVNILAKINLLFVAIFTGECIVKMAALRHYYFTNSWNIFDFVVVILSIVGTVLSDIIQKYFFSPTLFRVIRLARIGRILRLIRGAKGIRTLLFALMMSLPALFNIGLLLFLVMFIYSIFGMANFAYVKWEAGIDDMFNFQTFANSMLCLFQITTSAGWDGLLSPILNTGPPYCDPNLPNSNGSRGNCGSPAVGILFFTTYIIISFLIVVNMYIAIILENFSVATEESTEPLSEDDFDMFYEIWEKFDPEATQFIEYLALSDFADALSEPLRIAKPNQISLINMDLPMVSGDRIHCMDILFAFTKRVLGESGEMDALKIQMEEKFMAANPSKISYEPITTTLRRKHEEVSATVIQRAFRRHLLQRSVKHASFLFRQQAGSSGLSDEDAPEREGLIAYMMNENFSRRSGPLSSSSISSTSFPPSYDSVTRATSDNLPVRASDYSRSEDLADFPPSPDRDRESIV
Sequence of human cardiac Na channel (hH1, or SCN5A) (Q14524 whole entry): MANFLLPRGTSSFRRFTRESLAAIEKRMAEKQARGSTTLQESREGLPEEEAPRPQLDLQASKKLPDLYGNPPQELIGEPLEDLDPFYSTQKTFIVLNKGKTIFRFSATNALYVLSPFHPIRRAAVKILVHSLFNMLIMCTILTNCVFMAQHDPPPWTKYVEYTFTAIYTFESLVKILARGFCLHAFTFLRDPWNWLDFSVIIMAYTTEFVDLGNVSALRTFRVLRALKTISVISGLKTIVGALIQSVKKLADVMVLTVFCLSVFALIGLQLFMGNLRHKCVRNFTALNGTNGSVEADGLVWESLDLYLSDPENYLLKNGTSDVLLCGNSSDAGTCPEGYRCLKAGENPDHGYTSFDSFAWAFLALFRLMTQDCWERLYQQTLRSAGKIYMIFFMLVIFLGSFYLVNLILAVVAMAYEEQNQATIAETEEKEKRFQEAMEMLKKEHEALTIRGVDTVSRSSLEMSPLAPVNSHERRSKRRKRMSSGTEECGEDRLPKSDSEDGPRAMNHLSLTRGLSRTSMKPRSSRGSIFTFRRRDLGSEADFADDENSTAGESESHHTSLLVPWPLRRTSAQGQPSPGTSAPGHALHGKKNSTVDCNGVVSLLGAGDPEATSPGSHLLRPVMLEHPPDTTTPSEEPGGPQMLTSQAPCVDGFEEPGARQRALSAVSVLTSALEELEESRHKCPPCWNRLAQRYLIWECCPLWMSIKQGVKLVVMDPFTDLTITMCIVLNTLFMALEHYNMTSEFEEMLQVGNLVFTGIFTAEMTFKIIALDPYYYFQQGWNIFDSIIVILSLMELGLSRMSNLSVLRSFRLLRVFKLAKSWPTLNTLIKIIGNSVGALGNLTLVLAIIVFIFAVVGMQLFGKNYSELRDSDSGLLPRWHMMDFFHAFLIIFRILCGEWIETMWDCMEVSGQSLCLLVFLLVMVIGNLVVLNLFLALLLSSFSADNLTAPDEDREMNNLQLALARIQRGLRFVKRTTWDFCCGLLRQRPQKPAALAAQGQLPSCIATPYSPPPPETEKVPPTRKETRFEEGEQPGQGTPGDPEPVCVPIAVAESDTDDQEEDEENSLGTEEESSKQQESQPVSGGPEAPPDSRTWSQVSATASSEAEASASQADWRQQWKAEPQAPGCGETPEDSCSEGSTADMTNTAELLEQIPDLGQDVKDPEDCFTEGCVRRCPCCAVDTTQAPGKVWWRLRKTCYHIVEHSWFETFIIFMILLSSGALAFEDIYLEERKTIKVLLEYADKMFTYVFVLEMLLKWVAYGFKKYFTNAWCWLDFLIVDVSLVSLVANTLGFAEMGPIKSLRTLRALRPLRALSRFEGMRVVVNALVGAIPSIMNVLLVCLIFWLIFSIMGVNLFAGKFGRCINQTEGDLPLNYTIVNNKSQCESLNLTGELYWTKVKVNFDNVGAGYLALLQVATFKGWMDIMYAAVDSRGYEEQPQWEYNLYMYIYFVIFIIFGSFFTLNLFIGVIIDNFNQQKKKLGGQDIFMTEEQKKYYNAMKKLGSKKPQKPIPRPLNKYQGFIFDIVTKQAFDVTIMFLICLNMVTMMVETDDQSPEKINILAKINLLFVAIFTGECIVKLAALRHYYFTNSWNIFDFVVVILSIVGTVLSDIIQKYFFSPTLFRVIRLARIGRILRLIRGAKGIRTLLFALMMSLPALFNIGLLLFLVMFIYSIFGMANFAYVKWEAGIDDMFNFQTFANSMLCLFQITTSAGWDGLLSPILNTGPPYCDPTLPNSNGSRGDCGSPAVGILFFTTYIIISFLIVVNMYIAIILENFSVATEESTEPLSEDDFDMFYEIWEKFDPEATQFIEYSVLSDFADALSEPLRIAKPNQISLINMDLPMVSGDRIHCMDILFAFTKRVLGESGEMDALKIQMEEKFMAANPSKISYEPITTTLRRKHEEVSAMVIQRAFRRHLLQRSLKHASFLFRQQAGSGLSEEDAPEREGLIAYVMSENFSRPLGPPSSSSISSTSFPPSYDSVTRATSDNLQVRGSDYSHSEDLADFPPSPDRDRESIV
Sequence of ovalbumin (OVA) (P01012 whole entry, species assumed): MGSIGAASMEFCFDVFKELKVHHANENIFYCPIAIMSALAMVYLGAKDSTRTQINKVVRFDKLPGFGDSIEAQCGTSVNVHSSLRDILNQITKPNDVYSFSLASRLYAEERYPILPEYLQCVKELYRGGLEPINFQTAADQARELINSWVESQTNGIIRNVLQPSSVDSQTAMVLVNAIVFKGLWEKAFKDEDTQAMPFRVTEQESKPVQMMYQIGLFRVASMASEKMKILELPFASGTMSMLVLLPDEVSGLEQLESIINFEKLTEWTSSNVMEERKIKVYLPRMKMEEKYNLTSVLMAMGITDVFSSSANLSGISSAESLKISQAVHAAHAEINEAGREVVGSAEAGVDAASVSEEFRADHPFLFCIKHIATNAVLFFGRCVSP
Sequence of bovine serum albumin (P02769 25-607): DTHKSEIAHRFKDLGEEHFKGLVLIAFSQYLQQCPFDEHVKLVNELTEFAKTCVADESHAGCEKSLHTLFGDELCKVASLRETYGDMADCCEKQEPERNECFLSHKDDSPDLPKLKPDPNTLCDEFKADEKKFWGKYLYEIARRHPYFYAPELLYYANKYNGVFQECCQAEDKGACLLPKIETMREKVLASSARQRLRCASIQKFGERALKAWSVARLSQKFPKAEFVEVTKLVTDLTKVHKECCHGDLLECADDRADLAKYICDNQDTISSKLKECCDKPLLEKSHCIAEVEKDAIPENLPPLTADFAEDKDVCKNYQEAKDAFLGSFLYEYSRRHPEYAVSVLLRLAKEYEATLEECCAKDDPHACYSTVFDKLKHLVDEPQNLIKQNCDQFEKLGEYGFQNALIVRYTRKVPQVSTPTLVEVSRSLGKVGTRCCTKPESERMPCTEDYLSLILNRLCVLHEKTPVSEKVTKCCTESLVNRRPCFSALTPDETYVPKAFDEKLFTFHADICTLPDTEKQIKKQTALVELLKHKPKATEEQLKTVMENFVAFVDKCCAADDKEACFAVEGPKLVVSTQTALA

Compound: CC1(C)CC(O)CC(C)(C)N1[O] [Tempol]
- increase in levels of F2-IsoPs in renal vein plasma [1]: completely prevented the increase
- increase in plasma levels of F2-IsoPs [2]: completely ablated this increase

Compound: O=C(NCC1CCCCN1)c1cc(OCC(F)(F)F)ccc1OCC(F)(F)F (stereo not shown) [flecainide]
- A1 (amplitude of the fast component, recovery from inactivation) [3]: 0.80 ± 0.04
- A2 (amplitude of the slow component, recovery from inactivation) [3]: 0.20 ± 0.04
- P500/P1 (use-dependence) [3, 9]: 0.87±0.04
- V1/2 voltage-dependence of inactivation (availability) ([3]; flecainide 1 μM): −86.4±2.1 mV
- P500/P1 (use-dependent block) ([3]; WT, flecainide 10 μM, IsoK 10 μM): 0.38±0.05
- V1/2 voltage-dependence of inactivation ([3]; flecainide 1 μM in the presence of IsoK 10 μM): −99.3±2.3 mV
- mortality increase [4]: three-fold
- P500/P1 (use-dependent block) [5]: 0.92±0.03

Compound: CC(C)(C)OO [t-BHP, tert-butyl hydroperoxide]
- Na channel availability [6]: reduced Na channel availability
- V1/2 availability of native Na+ channels [6]: −82.8±1.7 mV
- formation of lipid peroxidation products (HEK-293 cells): abundant quantities of F2-IsoPs and IsoK

Compound: E2-isoketal
- pIC50 [7]: 5.68
- A1 (amplitude of the fast component, recovery from inactivation) [3]: 0.79 ± 0.04
- A2 (amplitude of the slow component, recovery from inactivation) [3]: 0.21 ± 0.04
- INa decay [3]: speeded the rate Of INa decay
- V1/2 voltage-dependence of activation [3]: −41.6±1.5 mV
- P500/P1 (use-dependence) [3, 9]: 0.89±0.02
- P500/P1 (use-dependence) ([3]; in the presence of flecainide 1 μM): 0.66±0.03
- V1/2 voltage-dependence of inactivation (availability) ([3]; flecainide 1 μM): −96.4±1.1 mV
- activation of sodium channels ([3]; over a range of membrane potentials): no effect on the activation
- PHF-tau formation (Alz50) (recombinant human tau): strong Alz50 immunoreactivity
- CC50 (P19 neuroglial cultures): 670 nM
- Na channel availability [6]: reduced Na channel availability
- V1/2 availability of native Na+ channels [6]: −82.0±1.7 mV
- cross-linking of ovalbumin (ovalbumin (OVA)): extensive cross-linked high molecular weight oligimers
- pIC50 (proteasome): 6.48
- adduction to albumin (bovine serum albumin): essentially complete within a few minutes

Compound: O=C(O)CCCC[C@@H]1CCSS1 (racemic) [lipoic acid]
- cognitive impairment (aged SAMP mice): effective in improving cognitive impairment
- increase in F2-IsoPs esterified in the kidney [8]: completely suppressed to below control levels
